Experimental data: the NIST ThermoML archive (doi:10.1007/s10765-006-0033-6)

Assay: compressibility factor (dimensionless); xn = mol fraction of the nth substance listed
Settings: Gas, Other PVT measurement

[N-]=[N+]=O [nitrous oxide] + FCF
Settings | compressibility factor
303.23 K, 131 kPa, x1 = 0.2958 | 0.9882
303.23 K, 133.7 kPa, x1 = 0.3826 | 0.9887
303.23 K, 194.9 kPa, x1 = 0.2958 | 0.9827
303.23 K, 199.1 kPa, x1 = 0.3826 | 0.9838
303.23 K, 213.1 kPa, x1 = 0.7326 | 0.9893
303.23 K, 235.1 kPa, x1 = 0.6589 | 0.9847
303.23 K, 289.2 kPa, x1 = 0.2958 | 0.9746
303.23 K, 295.5 kPa, x1 = 0.3826 | 0.9761
303.23 K, 316.4 kPa, x1 = 0.7326 | 0.9819
303.23 K, 349.2 kPa, x1 = 0.6589 | 0.9776
303.23 K, 356.8 kPa, x1 = 0.448 | 0.9708
303.23 K, 427.1 kPa, x1 = 0.2958 | 0.9622
303.23 K, 436.8 kPa, x1 = 0.3826 | 0.9645
303.23 K, 468.8 kPa, x1 = 0.7326 | 0.9723
303.23 K, 516.7 kPa, x1 = 0.6589 | 0.9669
303.23 K, 526.5 kPa, x1 = 0.448 | 0.9574
303.23 K, 626.7 kPa, x1 = 0.2958 | 0.9437
303.23 K, 641.7 kPa, x1 = 0.3826 | 0.947
303.23 K, 691.2 kPa, x1 = 0.7326 | 0.9582
303.23 K, 760.2 kPa, x1 = 0.6589 | 0.9509
303.23 K, 771.2 kPa, x1 = 0.448 | 0.9375
303.23 K, 910.7 kPa, x1 = 0.2958 | 0.9166
303.23 K, 933.9 kPa, x1 = 0.3826 | 0.9213
303.23 K, 1012.1 kPa, x1 = 0.7326 | 0.9378
303.23 K, 1108.8 kPa, x1 = 0.6589 | 0.927
303.23 K, 1117.6 kPa, x1 = 0.448 | 0.9081
303.23 K, 1303.4 kPa, x1 = 0.2958 | 0.8768
303.23 K, 1340.2 kPa, x1 = 0.3826 | 0.8837
303.23 K, 1465.6 kPa, x1 = 0.7326 | 0.9077
303.23 K, 1593.4 kPa, x1 = 0.448 | 0.8653
303.23 K, 1596.2 kPa, x1 = 0.6589 | 0.892
303.23 K, 1822 kPa, x1 = 0.2958 | 0.8193
303.23 K, 1881.5 kPa, x1 = 0.3826 | 0.8292
303.23 K, 2086.1 kPa, x1 = 0.7326 | 0.8636
303.23 K, 2214.2 kPa, x1 = 0.448 | 0.8037
303.23 K, 2252 kPa, x1 = 0.6589 | 0.8412
303.23 K, 2454.7 kPa, x1 = 0.2958 | 0.7378
303.23 K, 2551.4 kPa, x1 = 0.3826 | 0.7516
303.23 K, 2892.7 kPa, x1 = 0.7326 | 0.8004
303.23 K, 2954.5 kPa, x1 = 0.448 | 0.7169
303.23 K, 3079.5 kPa, x1 = 0.6589 | 0.7688
303.23 K, 3848.9 kPa, x1 = 0.7326 | 0.7119
303.23 K, 4005.3 kPa, x1 = 0.6589 | 0.6684
323.44 K, 159 kPa, x1 = 0.5714 | 0.9902
